Test results: US12351585B2, “2-phenyl-3,4-dihydropyrrolo[2,1-f] [1,2,4]triazinone derivatives as phosphodiesterase inhibitors and uses thereof” (TOPADUR PHARMA AG, priority 2015, dated 2025)
Like-named read-outs stand apart in the source and are kept apart here.

Experiments:
[1] = target: human phosphodiesterase-5 (PDE5) (Homo sapiens (Human), UniProt O76074); assay: PDE5 assay: formation of 5'GMP from cGMP, PDE5 enzyme isolated from human platelets
Description: Purpose: Evaluation of the effects of compounds of the present invention on the activity of the human phosphodiesterase-5 quantified by measuring the formation of 5′GMP from cGMP using PDE5 enzyme isolated from human platelets.
Thereafter, the reaction is initiated by addition of the enzyme and the mixture is incubated for 60 min at 22° C.
For basal control measurements, the enzyme is omitted from the reaction mixture. Following incubation SPA beads are added. After 20 min at 22° C. under shaking, the amount of [3H]5′GMP is quantified with a scintillation counter (Topcount, Packard).

[2] = system: phenylephrine-precontracted rat aortic rings; assay: Isometric tension studies on rat aortic rings (relaxation of phenylephrine-precontracted rings); settings: for potency and efficacy compared to intact endothelium, in words: L-NAME (FIG. 2C) or mechanical removal of endothelium (FIG. 2D); for EC50 / Emax: Rattus norvegicus
Description: After 1 week of acclimatization, rats were anesthetized. Appropriate depth of anesthesia was determined by the absence of the leg flexor response and the eyelid reflex. Then, the thorax was quickly opened by a midline incision, and the rat was sacrificed by cutting the heart and exsanguination.
Indomethacin (1 μM) was added to the saline solution.
Eligible rings were then washed several times to restore tension to the baseline level.
In some experiments, the entire length of the thoracic aorta was functionally denuded of the endothelial layer by gently scraping the luminal surface with a 1.5 mm glass rod. […] Rings were then washed several times to restore tension to the baseline level.
Indomethacin (1 μM) was added to the saline solution. […] Only vessels with at least 60% relaxation to 1 μM ACh from the tension with 300 nM were eligible.
The preparations were allowed to equilibrate for 60 min in Krebs with high glucose (25 mM) before contraction to a new single concentration of PE (300 nM).
Finally, sodium nitroprusside (0.1 mM) was added, in order to obtain maximum relaxation of arterial rings.
The amount of relaxation (percent values as means±SEM) was quantified as percent relaxation from the tension (plateau) achieved with phenylephrine.
Data are presented as mean±SEM. Statistical analysis of results has been performed by analysis of variance (ANOVA) either parametric or non-parametric (Kruskal-Wallis), followed by Bonferroni test or Dunn tests as appropriate (GraphPad Software Inc, San Diego, CA, USA). Significance was accepted when P<0.05. Non-linear regression was conducted with GraphPad Software).

[3] = system: human pulmonary artery smooth muscle cells (hPASMC); assay: Measurements of cGMP in human pulmonary artery smooth muscle cells (hPASMC); assay type: cell-based; settings: incubation 15 or 30 min
Description: Human Pulmonary Artery Smooth Muscle Cells (hPASMC) were purchased from Clonetics™ Lonza (Lonza, reference number CC-2581) and cultured in Clonetics™ smooth muscle growth medium (Clonetics™ SmGM™-2 with BulletKit™ growth factor supplements (Lonza, reference number CC-3182) at 37° C. in 500 CO2. Culture medium was replaced each 48 hours. Cells were grown in 75 cm^2 culture plates. 48 h before the experiments, cells were trypsinized (Trypsin kit One ReagentPack™ (CC-5034), Lonza) and plated in 96 well plates precoated with collagen I at 10000 cells per well. 24 h before the experiments culture medium was replaced by serum-reduced (0.5% FBS) medium.
Measurements of intracellular cGMP were performed using the Amersham cGMP EIA System (GE Healthcare, RPN226) following the instructions of the manufacturer. The assay has a sensitivity of 2 fmol cGMP per well. Briefly, incubations were terminated by adding Amersham's lysis buffer 1 and cells left for 10 min under agitation to ensure complete lysis. cGMP in samples was then acetylated using triethylamine and acetic anhydride and determined by a competitive ELISA. The ELISA is based on the competition between acetylated cGMP in cell culture lysates and a peroxidase-labelled cGMP conjugate for limited binding sites on a cGMP specific antiserum immobilized on pre-coated 96 well MTP. cGMP was determined based on a standard curve. […]

Q: `CCCc1c(/C=N/O)c(C)c2c(=O)[nH]c(-c3cc(S(=O)(=O)N4CCN(C)CC4)ccc3OCC)nn12` [Compound 1a, (E)-2-(2-ethoxy-5-((4-methylpiperazin-1-yl)sulfonyl)phenyl)-5-methyl-4-oxo-7-propyl-3,4-dihydropyrrolo[2,1-f][1,2,4]triazine-6-carbaldehyde oxime] was tested. Which IC50 ([1]; human platelet PDE5) did it give?
A: 0.25 nM

Q: Which IC50 ([1]; human platelet PDE5) does the source give for `CCCOc1ccc(S(=O)(=O)N2CCN(C)CC2)cc1-c1nn2c(CCC)c(/C=N/OC)c(C)c2c(=O)[nH]1` [Compound 1o, (E)-5-methyl-2-(5-((4-methylpiperazin-1-yl)sulfonyl)-2-propoxyphenyl)-4-oxo-7-propyl-3,4-dihydropyrrolo[2,1-f][1,2,4]triazine-6-carbaldehyde O-methyl oxime] here?
A: 0.53 nM

Q: Which “% inhibition at 5.0E−09M” value ([1]; 5.0E−09M, percent inhibition of control enzyme activity) does the source give for “(E)-2-(2-ethoxy-5-(4-(2-hydroxyethyl)piperidin-1-ylsulfonyl)phenyl)-5-methyl-4-oxo-7-propyl-3,4-dihydropyrrolo[1,2-f][1,2,4]triazine-6-carbaldehyde oxime [Compound 1al]” here?
A: 84.9%

Q: And the IC50 ([1]; human platelet PDE5)?
A: 0.48 nM

Q: How did the “potency and efficacy compared to intact endothelium, in words” value [2] turn out when `CCCOc1ccc(S(=O)(=O)N2CCC(CCO[N+](=O)[O-])CC2)cc1-c1nn2c(CCC)c(/C=N/O)c(C)c2c(=O)[nH]1` [Compound 1v, (E)-2-(1-((3-(6-((hydroxyimino)methyl)-5-methyl-4-oxo-7-propyl-3,4-dihydropyrrolo[2,1-f][1,2,4]triazin-2-yl)-4-propoxyphenyl)sulfonyl)piperidin-4-yl)ethyl nitrate] was run?
A: superior

Q: What about the “relaxation of rat aortic rings, comparison in words” value (“relaxation of rat aortic rings” below) ([2]; intact endothelium (FIG. 2A)) of the same molecule?
A: more potent and effective than Sildenafil

Q: What about the “relaxation of rat aortic rings” value ([2]; pre-exposed to high glucose 25 mM (FIG. 2B)) of the same molecule?
A: clearly more potent and efficacious than 1r

Q: What about the “cGMP in hPASMC, activity compared to sildenafil” value [3] of the same molecule?
A: significantly higher activity as compared to the reference inhibitor sildenafil

Q: How did the IC50 [1] turn out when `CCCOc1ccc(S(=O)(=O)N2CCC(CCO)CC2)cc1-c1nn2c(CCC)c(/C=N/O)c(C)c2c(=O)[nH]1` [Compound 1r, (E)-2-(5-((4-(2-hydroxyethyl)piperidin-1-yl)sulfonyl)-2-propoxyphenyl)-5-methyl-4-oxo-7-propyl-3,4-dihydropyrrolo[2,1-f][1,2,4]triazine-6-carbaldehyde oxime] was run?
A: 0.16 nM

Q: And the “potency and efficacy compared to intact endothelium, in words” value [2]?
A: largely impaired

Q: And the EC50 ([2]; High Glucose (25 mM))?
A: 2.79 nM

Q: And the Emax ([2]; High Glucose (25 mM))?
A: 51%

Q: And the EC50 ([2]; Intact Endothelium (E+))?
A: 0.0074 nM

Q: What about the Emax ([2]; Intact Endothelium (E+)) of the same molecule?
A: 91.9%

Q: And the EC50 ([2]; L-NAME (100 μM))?
A: 0.935 nM

Q: And the Emax ([2]; L-NAME (100 μM))?
A: 60.4%

Q: What about the EC50 ([2]; Without Endothelium) of the same molecule?
A: 5.94 nM

Q: What about the Emax ([2]; Without Endothelium) of the same molecule?
A: 39.8%

Q: What about the “relaxation of rat aortic rings” value ([2]; intact endothelium (FIG. 2A)) of the same molecule?
A: more potent and effective than Sildenafil

Q: What about the “cGMP in hPASMC, activity compared to sildenafil” value [3] of the same molecule?
A: significantly higher activity as compared to the reference inhibitor sildenafil

Q: Which IC50 ([1]; human platelet PDE5) does the source give for `CCCc1c(/C=N/O)c(C)c2c(=O)[nH]c(-c3cc(S(=O)(=O)N4CCN(CCCO)CC4)ccc3OCC)nn12` [Compound 1an, (E)-2-(2-ethoxy-5-(4-(3-hydroxypropyl)piperazin-1-ylsulfonyl)phenyl)-5-methyl-4-oxo-7-propyl-3,4-dihydropyrrolo[1,2-f][1,2,4]triazine-6-carbaldehyde oxime] here?
A: 0.42 nM

Q: “(E)-2-(4-(4-ethoxy-3-(6-((methoxyimino)methyl)-5-methyl-4-oxo-7-propyl-3,4-dihydropyrrolo [1,2-f][1,2,4]triazin-2-yl)phenylsulfonyl)piperazin-1-yl)ethyl nitrate [Compound 1ai]” was tested. Which “% inhibition at 5.0E−09M” value [1] did it give?
A: 0.3%
